Where a chain is given by its changes, count along the chain named.
How the values were obtained:
N257A CLC-K1 = target: T1, N257A CLC-K1 (Rattus norvegicus, UniProt Q06393, N257A); assay: NFA effect on N257A CLC-K1 without barttin, voltage clamp in Xenopus oocytes; type: cell-based; conditions: 200 μM NFA
T1 sequence (Q06393 1-687 N257A): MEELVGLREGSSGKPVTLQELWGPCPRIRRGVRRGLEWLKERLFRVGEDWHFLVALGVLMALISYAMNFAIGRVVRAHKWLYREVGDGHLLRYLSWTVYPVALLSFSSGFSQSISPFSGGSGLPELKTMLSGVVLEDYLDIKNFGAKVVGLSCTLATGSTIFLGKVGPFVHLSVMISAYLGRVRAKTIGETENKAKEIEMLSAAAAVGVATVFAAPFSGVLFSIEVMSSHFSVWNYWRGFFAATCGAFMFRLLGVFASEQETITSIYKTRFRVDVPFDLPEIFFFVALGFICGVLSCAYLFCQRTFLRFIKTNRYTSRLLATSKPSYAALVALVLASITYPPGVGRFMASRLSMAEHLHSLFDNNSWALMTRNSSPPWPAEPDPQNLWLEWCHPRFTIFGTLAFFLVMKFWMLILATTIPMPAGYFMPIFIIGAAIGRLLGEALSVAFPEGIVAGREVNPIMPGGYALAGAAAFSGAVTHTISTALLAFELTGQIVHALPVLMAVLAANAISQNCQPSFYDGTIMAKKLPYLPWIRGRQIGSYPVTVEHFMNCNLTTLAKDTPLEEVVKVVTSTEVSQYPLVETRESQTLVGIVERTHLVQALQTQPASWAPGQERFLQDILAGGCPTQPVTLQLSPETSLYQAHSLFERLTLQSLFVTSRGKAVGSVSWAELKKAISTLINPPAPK

rat CLC-K1 = conditions: all concentrations tested; cited from earlier work
N257A CLC-Ka = target: T2, N257A CLC-Ka (Homo sapiens, UniProt P51800, N257A); assay: NFA effect on N257A CLC-Ka currents, voltage clamp in Xenopus oocytes; type: cell-based
T2 sequence (P51800 1-687 N257A): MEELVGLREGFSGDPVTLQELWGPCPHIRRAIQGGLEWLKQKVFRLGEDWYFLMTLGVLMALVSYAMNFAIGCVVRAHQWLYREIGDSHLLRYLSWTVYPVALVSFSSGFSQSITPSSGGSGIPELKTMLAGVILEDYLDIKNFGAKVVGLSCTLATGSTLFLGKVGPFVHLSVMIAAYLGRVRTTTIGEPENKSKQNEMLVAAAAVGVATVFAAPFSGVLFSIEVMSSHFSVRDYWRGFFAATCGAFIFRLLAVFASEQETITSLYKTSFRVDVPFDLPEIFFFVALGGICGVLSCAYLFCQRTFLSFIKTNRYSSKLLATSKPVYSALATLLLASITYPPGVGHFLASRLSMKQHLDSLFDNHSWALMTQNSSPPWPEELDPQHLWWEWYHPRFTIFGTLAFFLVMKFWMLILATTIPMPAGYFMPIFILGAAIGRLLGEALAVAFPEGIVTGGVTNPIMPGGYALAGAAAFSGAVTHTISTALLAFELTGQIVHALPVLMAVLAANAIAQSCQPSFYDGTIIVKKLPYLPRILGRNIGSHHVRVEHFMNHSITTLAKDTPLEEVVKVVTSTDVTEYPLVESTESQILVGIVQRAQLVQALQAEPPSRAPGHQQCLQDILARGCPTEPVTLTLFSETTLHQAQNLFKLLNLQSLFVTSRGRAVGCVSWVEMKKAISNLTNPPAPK
T2 sequence (Q8WZ55 1-320 Y98A partner): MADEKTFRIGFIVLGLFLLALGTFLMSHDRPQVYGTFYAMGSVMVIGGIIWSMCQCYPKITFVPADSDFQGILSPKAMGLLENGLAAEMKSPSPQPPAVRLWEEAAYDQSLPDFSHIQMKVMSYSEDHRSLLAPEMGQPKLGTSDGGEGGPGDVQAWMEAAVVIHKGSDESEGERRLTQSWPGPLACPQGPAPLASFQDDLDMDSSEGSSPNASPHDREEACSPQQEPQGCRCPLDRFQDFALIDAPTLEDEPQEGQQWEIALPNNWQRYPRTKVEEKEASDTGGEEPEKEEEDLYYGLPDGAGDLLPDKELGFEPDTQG

F256A CLC-K1 = target: T3, F256A CLC-K1 (Rattus norvegicus, UniProt Q06393, F256A); assay: NFA effect on F256A CLC-K1 without barttin, voltage clamp in Xenopus oocytes; type: cell-based; conditions: expressed without barttin
T3 sequence (Q06393 1-687 F256A): T1 sequence (Q06393 1-687 N257A) with F256A, A257N

In the case of `O=C(O)c1cccnc1Nc1cccc(C(F)(F)F)c1` [NFA, niflumic acid], the “sensitivity to NFA compared with WT” value (N257A CLC-K1) is listed as “only weakly more sensitive”, the “effect on rat CLC-K1” value (rat CLC-K1) is listed as “blocked” and the “effect of NFA on currents” value (N257A CLC-Ka; all [NFA]ext tested, from 1 to 2000 μM) is listed as “only blocked”. For the same compound, the inhibition at 5 µM (N257A CLC-Ka; read-out: inhibition of currents) was ~90% and the “effect of NFA on currents” value (F256A CLC-K1) was “no potentiation”.
